The values that follow are results of earlier work, collected in patent US20060104952A1, “Genomic barrier to viral disease” (priority 2004, published 2006).

SMILES strings stand for the structures.

This data set relates to genes. The settings on record: ref 10 (CoQ10 supplementation, human skeletal muscle).

Consider `COC1=C(OC)C(=O)C(C/C=C(\C)CC/C=C(\C)CC/C=C(\C)CC/C=C(\C)CC/C=C(\C)CC/C=C(\C)CC/C=C(\C)CC/C=C(\C)CC/C=C(\C)CCC=C(C)C)=C(C)C1=O` [coenzyme Q10], for which the “number of genes whose expression is influenced” value is “at least 115 genes”.
